Measured values reported in patent US4168206A, “Impregnated disk method for testing antifungal susceptibility” (Philadelphia College of Osteopathic Medicine, priority 1977, dated 1979).
In brackets after ≈: the same amount, converted by molar mass. Like-named read-outs stand apart in the source and are kept apart here.

How the values were obtained:
Format in all cases: cell-based
Cryptococcus neoformans = test: MIC by broth dilution method, Cryptococcus neoformans; settings: Cryptococcus neoformans
From the text: (§1) The preparation of the nutrient media, the antifungal agents and the fungi to be tested in the present invention are similar to those reported in S. Shadomy and A. Espinel-Ingroff, "Susceptibility Testing Of Antifungal Agents", Ch. 63, pp. 569-574 in E. H. Lennett, E. H. Spaulding, and J. P. Truant, Eds., Manual Of Clinical Microbiology, 2nd Ed., American Society for Microbiology, Washington, D.C. (1974). This publication describes the susceptibility testing of antifungal agents, namely, amphotericin B, nystatin and 5-fluoro-cytosine (5-FC), by the "broth dilution method" and the "semisolid agar dilution method". At pages 570-571, it is stated:
(§2) In 10 duplicate runs with each strain tested, the variation in minimum inhibitory concentration averaged ±0.05 μg/ml.
(§3) *Broth dilution method conducted in accordance with S. Shadomy and E.
(§4) Espinel-Ingroff, "Susceptibility Testing of Antifungal Agents", Ch. 63,
(§5) pp. 569-574 in E. H. Spaulding and J. P. Truant, Eds., Manual Of Clinical
(§6) Microbiology, 2nd Ed., American Society for Microbiology, Washington, […]

Torulopsis glabrata = test: MIC by broth dilution method, Torulopsis glabrata; settings: Nakaseomyces glabratus, read-out: Minimum Inhibitory Concentration, Broth
From the text: as §1, §2, §3, §4, §5, §6

Trichosporon sp. [1] = test: MIC by impregnated disk method, Trichosporon sp.; settings: Trichosporon, read-out: Minimum Inhibitory Concentration, Disk
Description: (§7) Stock solutions of the antifungal agents to be tested are preferably prepared by diluting the antifungal agents in the proper nutrient medium. It is presently preferred to prepare dilutions in 10 ml of the proper medium to give the following final concentrations when applied to the disks (all quantities in micrograms per milliliter): 0.05, 0.08, 0.09, 0.1; 0.1 increment increases to 0.9, 1.0; 0.5 increment increases to 10.0; and 12.0, 14.0, 20.0, 25.0 and 50.0. Disks have been prepared by placing 0.05 ml of the above dilutions of antifungal agent containing medium on 6.5 mm diameter disks in 0.01 or 0.02 ml increments. The impregnated disks are then allowed to dry at a temperature preferably below about 10° C. […] The disks may also be dried by a lyophilization or freeze drying process.
(§8) To perform the tests in accordance with the present inventions, disks impregnated with various concentrations of antifungal agent and nutrient medium and a control disk impregnated only with the corresponding nutrient medium are placed on the fungus to be tested which has been applied to the non-nutrient medium. The disks are the inoculated non-nutrient medium are then incubated at a suitable temperature for a sufficient time to promote growth of the fungus. Any temperature is suitable if it will promote growth of the fungus without adversely affecting the fungus or the activity of the antifungal agent or agents tested. The time of incubation can be determined by observing the extent of growth around the control disk. […] The zones of growth or inhibition around the disks were read at 6, 12, 24, 36 and 48 hours after the disks were placed on the tested fungus.
The minimum inhibitory concentration is defined as the lowest concentration of antifungal agent which inhibits visible growth. […]
Several test disks and a control disk were placed in each petri dish containing the inoculated agar. The disks and petri dishes were then incubated at 29° C. and the minimum inhibitory concentration of the various concentrations of the antifungal agents were read at 6, 12, 24, 36 and 48 hours. […]

Candida albicans [2] = test: Susceptibility to combination of antifungal agents on disks (Example 2); settings: Candida albicans isolate
From the text: The method of the present invention also may be used to test combinations of antifungal agents. In this method, more than one antifungal agent of known concentration is impregnated in each test disk.
Each disk is impregnated with a particular known concentration of at least one particular antifungal agent, except for the control disks. When the susceptibility of a fungus to combinations of antifungal agents is being tested, more than one antifungal agent is impregnated in each test disk.
The susceptibility of two other isolates to combinations of antifungal agents were tested by combining more than one antifungal agent on each test disk. A series of test disks were prepared containing various combinations of antifungal agents in various concentrations and were used in the method of the present invention. The results of this procedure are summarized in the following specific, non-limiting examples:
This is a significant reduction in amphotericin B.

Candida albicans [3] = test: MIC by impregnated disk method, Candida albicans; settings: Candida albicans
Description: as §7, §8
(§9) The minimum inhibitory concentration is defined as the lowest concentration of antifungal agent which inhibits visible growth. The disks containing concentrations of antifungal agents below the minimum inhibitory concentration show circumscribed growth of the fungus around the disk. Disks containing concentrations of antifungal agent at or above the minimum inhibitory concentration show no circumscribed growth.
(§10) Clinical isolates of various fungi listed in Table 1 were obtained from different patients diagnosed as having fungal infections. The fungal inocula were prepared by using a 24-48 hour cultures grown in yeast nitrogen base containing 1% glucose and 0.15% asparagine. After centrifuging, the supernatant was removed, the sedimented cells were washed twice with sterile distilled water and a cell suspension was adjusted to 80% transmission at 520 nm using a Beckman DB-GT grating spectrophotometer.
(§11) Sterile liquified 2% purified agar was placed in petri dishes and allowed to harden. The surface of the agar was inoculated with a sterile cotton swab saturated with a suspension of an organism. The uniformly swabbed plates were then allowed to dry.
(§12) Disks were prepared using the dilutions described above for amphotericin B, nystatin and 5-fluorocytosine. 0.05 ml of the dilutions of each antifungal agent diluted with the appropriate nutrient medium were pipetted on 6.5 mm diameter disks. The disks were dried at 4° C. after each application. Control disks were also prepared.
(§13) Several test disks and a control disk were placed in each petri dish containing the inoculated agar. The disks and petri dishes were then incubated at 29° C. and the minimum inhibitory concentration of the various concentrations of the antifungal agents were read at 6, 12, 24, 36 and 48 hours.
as §2

C. parapsilosis [4] = test: MIC by broth dilution method, Candida parapsilosis; settings: Lodderomyces parapsilosis
From the text: as §1, §2, §3, §4, §5, §6

Candida albicans [5] = test: MIC by broth dilution method, Candida albicans; settings: Candida albicans
From the text: as §1, §2, §3, §4, §5, §6

Trichosporon sp. [6] = test: MIC by broth dilution method, Trichosporon sp.; settings: Trichosporon, read-out: Minimum Inhibitory Concentration, Broth
From the text: as §1, §2, §3, §4, §5, §6

C. parapsilosis [7] = test: MIC by impregnated disk method, Candida parapsilosis; settings: Lodderomyces parapsilosis
Description: as §7, §8, §9, §10, §11, §12, §13, §2

C[C@@H]1[C@H](O)[C@@H](C)/C=C/C=C/C=C/C=C/C=C/C=C/C=C/[C@H](O[C@@H]2O[C@H](C)[C@@H](O)[C@H](N)[C@@H]2O)C[C@@H]2O[C@](O)(C[C@@H](O)C[C@@H](O)[C@H](O)CC[C@@H](O)C[C@@H](O)CC(=O)O[C@H]1C)C[C@H](O)[C@H]2C(=O)O [Amphotericin B, amphotericin B]
MIC (Cryptococcus neoformans; read-out: Minimum Inhibitory Concentration, Broth, C. neoformans isolate 2): 0.4 µg/mL (≈ 0.433 µM)
MIC (Cryptococcus neoformans; read-out: Minimum Inhibitory Concentration, Broth, C. neoformans isolate 3): 0.5 µg/mL (≈ 0.541 µM)
MIC (Cryptococcus neoformans; read-out: Minimum Inhibitory Concentration, Broth, Cryptococcus neoformans isolate 1): 0.5 µg/mL (≈ 0.541 µM)
MIC (Torulopsis glabrata): 0.3 µg/mL (≈ 0.325 µM)
MIC (Trichosporon sp. [1]): 0.9 µg/mL (≈ 0.974 µM)
amphotericin B susceptibility (Candida albicans [2]; alone, previously tested): 0.8 µg/mL
amphotericin B susceptibility (Candida albicans [2]; in combination with tetracycline): 0.2 µg/mL
MIC (Candida albicans [3]; isolate 1, read-out: Minimum Inhibitory Concentration, Disk): 0.3 µg/mL (≈ 0.325 µM)
MIC (Candida albicans [3]; isolate 2, read-out: Minimum Inhibitory Concentration, Disk): 0.6 µg/mL (≈ 0.649 µM)
MIC (Candida albicans [3]; isolate 3, read-out: Minimum Inhibitory Concentration, Disk): 0.08 µg/mL (≈ 0.0866 µM)
MIC (Candida albicans [3]; isolate 4, read-out: Minimum Inhibitory Concentration, Disk): 0.6 µg/mL (≈ 0.649 µM)
MIC (Candida albicans [3]; isolate 5, read-out: Minimum Inhibitory Concentration, Disk): 0.9 µg/mL (≈ 0.974 µM)
MIC (Candida albicans [3]; isolate 6, read-out: Minimum Inhibitory Concentration, Disk): 1 µg/mL (≈ 1.08 µM)
MIC (C. parapsilosis [4]; read-out: Minimum Inhibitory Concentration, Broth, C. parapsilosis isolate 1): 0.8 µg/mL (≈ 0.866 µM)
MIC (C. parapsilosis [4]; read-out: Minimum Inhibitory Concentration, Broth, C. parapsilosis isolate 2): 0.6 µg/mL (≈ 0.649 µM)
MIC (Candida albicans [5]; isolate 1, read-out: Minimum Inhibitory Concentration, Broth): 0.4 µg/mL (≈ 0.433 µM)
MIC (Candida albicans [5]; isolate 2, read-out: Minimum Inhibitory Concentration, Broth): 0.7 µg/mL (≈ 0.758 µM)
MIC (Candida albicans [5]; isolate 3, read-out: Minimum Inhibitory Concentration, Broth): 0.1 µg/mL (≈ 0.108 µM)
MIC (Candida albicans [5]; isolate 4, read-out: Minimum Inhibitory Concentration, Broth): 0.6 µg/mL (≈ 0.649 µM)
MIC (Candida albicans [5]; isolate 5, read-out: Minimum Inhibitory Concentration, Broth): 0.8 µg/mL (≈ 0.866 µM)
MIC (Candida albicans [5]; isolate 6, read-out: Minimum Inhibitory Concentration, Broth): 1.5 µg/mL (≈ 1.62 µM)
MIC (Trichosporon sp. [6]): 1.1 µg/mL (≈ 1.19 µM)
MIC (C. parapsilosis [7]; read-out: Minimum Inhibitory Concentration, Disk, C. parapsilosis isolate 1): 0.5 µg/mL (≈ 0.541 µM)
MIC (C. parapsilosis [7]; read-out: Minimum Inhibitory Concentration, Disk, C. parapsilosis isolate 2): 0.6 µg/mL (≈ 0.649 µM)
